The values that follow come from patent publication US12570666B2, “Furoindazole derivatives” (Bayer Aktiengesellschaft, priority 2019, dated 2026).

The target of the experiment is T1, human GPR84 receptor (Homo sapiens, UniProt Q9NQS5).
T1 construct: frozen aliquots prepared by acCELLerate; host or cells: CHO-K1
T1 sequence (Q9NQS5 whole entry): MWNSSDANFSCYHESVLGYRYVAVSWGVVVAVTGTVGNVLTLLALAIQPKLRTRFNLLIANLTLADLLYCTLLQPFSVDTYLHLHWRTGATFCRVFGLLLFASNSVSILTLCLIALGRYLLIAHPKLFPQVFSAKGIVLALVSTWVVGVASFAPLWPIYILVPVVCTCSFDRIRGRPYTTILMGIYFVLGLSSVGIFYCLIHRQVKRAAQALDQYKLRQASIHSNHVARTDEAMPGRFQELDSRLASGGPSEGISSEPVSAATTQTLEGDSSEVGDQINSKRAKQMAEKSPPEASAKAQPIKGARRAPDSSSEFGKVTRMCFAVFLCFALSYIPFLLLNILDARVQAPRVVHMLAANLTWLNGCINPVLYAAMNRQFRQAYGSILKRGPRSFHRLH
Kind of experiment: cAMP HTRF assay for identification of cellular GPR84 antagonists. The format is cell-based. The note with it: CHO-K1 cells stably expressing human GPR84; Forskolin + agonist 6-OAU (EC80); average or median values. In short, it runs like this: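 IC50 came from 4-parameter fits over 20 μM–0.07 nM (11 points, duplicate), normalized between DMSO (0%) and agonist-free (100% inhibition) wells. Readout: cAMP-d2/Eu-cryptate HTRF in hGPR84 CHO-K1 cells given forskolin plus agonist, compound preincubated 30 min at room temperature.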
(In TR-FRET formats the signal depends on donor and acceptor labels being close together.)
In the case of `Cc1cnc(CNC(=O)c2oc3c(c2C(F)(F)F)-c2nn(C[C@H]4COCCO4)cc2[C@H](C)C3)cn1` (single isomer, unassigned) [Example 258, (4R or 4S)-2-{[(2S)-1,4-dioxan-2-yl]methyl}-4-methyl-N-[(5-methylpyrazin-2-yl)methyl]-8-(trifluoromethyl)-4,5-dihydro-2H-furo[2,3-g]indazole-7-carboxamide], the IC50 was 5 nM.

For `C[C@@H]1Cc2oc(C(=O)NCc3nccs3)c(C(F)(F)F)c2-c2nn(C[C@H]3COCCO3)cc21` (single isomer, unassigned) [Example 259, (4R or 4S)-2-{[(2S)-1,4-dioxan-2-yl]methyl}-4-methyl-N-[(1,3-thiazol-2-yl)methyl]-8-(trifluoromethyl)-4,5-dihydro-2H-furo[2,3-g]indazole-7-carboxamide], the IC50 is 5 nM.

Turning to `C[C@@H]1Cc2oc(C(=O)NCc3cnccn3)c(C(F)(F)F)c2-c2nn(C[C@H]3COCCO3)cc21` (single isomer, unassigned) [Example 260, (4R or 4S)-2-{[(2S)-1,4-dioxan-2-yl]methyl}-4-methyl-N-[(pyrazin-2-yl)methyl]-8-(trifluoromethyl)-4,5-dihydro-2H-furo[2,3-g]indazole-7-carboxamide], the IC50 turned out to be 24 nM.

Consider `C[C@@H]1Cc2oc(C(=O)NCc3cocn3)c(C(F)(F)F)c2-c2nn(C[C@H]3COCCO3)cc21` (single isomer, unassigned) [Example 261, (4R or 4S)-2-{[(2S)-1,4-dioxan-2-yl]methyl}-4-methyl-N-[(1,3-oxazol-4-yl)methyl]-8-(trifluoromethyl)-4,5-dihydro-2H-furo[2,3-g]indazole-7-carboxamide], for which the IC50 turned out to be 63 nM.

With `C[C@@H]1Cc2oc(C(=O)NCc3cnc(C(F)(F)F)nc3)c(C(F)(F)F)c2-c2nn(C[C@H]3COCCO3)cc21` (single isomer, unassigned) [Example 262, (4R or 4S)-2-{[(2S)-1,4-dioxan-2-yl]methyl}-4-methyl-8-(trifluoromethyl)-N-{[2-(trifluoromethyl)pyrimidin-5-yl]methyl}-4,5-dihydro-2H-furo[2,3-g]indazole-7-carboxamide], the IC50 came to 195 nM.

In the case of `C[C@@H]1Cc2oc(C(=O)NC[C@@H]3COCCO3)c(C(F)(F)F)c2-c2nn(CC3CCOCC3)cc21` (single isomer, unassigned) [Example 263, (4R or 4S)-N-{[(2R)-1,4-dioxan-2-yl]methyl}-4-methyl-2-[(oxan-4-yl)methyl]-8-(trifluoromethyl)-4,5-dihydro-2H-furo[2,3-g]indazole-7-carboxamide], the IC50 was found to be 13 nM.

As to `Cc1c(C(=O)NC[C@@H]2COCCO2)oc2c1-c1nn(C[C@H]3COCCO3)cc1[C@H](C(F)(F)F)C2` (single isomer, unassigned) [Example 265-1, (4R or 4S)-N-{[(2R)-1,4-dioxan-2-yl]methyl}-2-{[(2S)-1,4-dioxan-2-yl]methyl}-8-methyl-4-(trifluoromethyl)-4,5-dihydro-2H-furo[2,3-g]indazole-7-carboxamide], the IC50 was determined as 185 nM.

With `Cc1c(C(=O)NC[C@@H]2COCCO2)oc2c1-c1nn(C[C@H]3COCCO3)cc1[C@H](C(F)(F)F)C2` (single isomer, unassigned) [Example 265-2, (4R or 4S)-N-{(2R)-1 ,4-dioxan-2-yl]methyl}-2-{[(2S)-1,4-dioxan-2-yl]methyl}-8-methyl-4-(trifluoromethyl)-4,5-dihydro-2H-furo[2,3-g]indazole-7-carboxamide], the IC50 was 1210 nM.

Regarding `C[C@@H]1Cc2oc(C(=O)NC[C@@H]3CCCO3)c(C(F)(F)F)c2-c2nn(CC3CCN(C(=O)C4CC4)CC3)cc21` (single isomer, unassigned) [Example 290, (4R or 4S)-2-{[1-(cyclopropanecarbonyl)piperidin-4-yl]methyl}-4-methyl-N-{[(2S)-oxolan-2-yl]methyl}-8-(trifluoromethyl)-4,5-dihydro-2H-furo[2,3-g]indazole-7-carboxamide], the IC50 stood at 4 nM.

In the case of `C[C@@H]1Cc2oc(C(=O)NC[C@@H]3COCCO3)c(C(F)(F)F)c2-c2nn(CC3CCN(C(=O)C4CC4)CC3)cc21` (single isomer, unassigned) [Example 291, (4R or 4S)-2-{[1-(cyclopropanecarbonyl)piperidin-4-yl]methyl}-N-{[(2R)-1,4-dioxan-2-yl]methyl}-4-methyl-8-(trifluoromethyl)-4,5-dihydro-2H-furo[2,3-g]indazole-7-carboxamide], the IC50 was found to be 5 nM.

For the molecule `CC(=O)N1CCC(Cn2cc3c(n2)-c2c(oc(C(=O)NC[C@@H]4CCCO4)c2C(F)(F)F)C[C@H]3C)CC1` (single isomer, unassigned) [Example 292, (4R or 4S)-2-[(1-acetylpiperidin-4-yl)methyl]-4-methyl-N-{[(2S)-oxolan-2-yl]methyl}-8-(trifluoromethyl)-4,5-dihydro-2H-furo[2,3-g]indazole-7-carboxamide], the IC50 came out at 6 nM.

`C[C@@H]1Cc2oc(C(=O)NC[C@@H]3CCCO3)c(C(F)(F)F)c2-c2nn(CC3CCN(C(=O)C4(O)CC4)CC3)cc21` (single isomer, unassigned) [Example 293, (4R or 4S)-2-{[1-(1-hydroxycyclopropane-1-carbonyl)piperidin-4-yl]methyl}-4-methyl-N-{[(2S)-oxolan-2-yl]methyl}-8-(trifluoromethyl)-4,5-dihydro-2H-furo[2,3-g]indazole-7-carboxamide]: the IC50 was 7 nM.

As to `CC(=O)N1CCC(Cn2cc3c(n2)-c2c(oc(C(=O)NC[C@@H]4COCCO4)c2C(F)(F)F)C[C@H]3C)CC1` (single isomer, unassigned) [Example 294, (4R or 4S)-2-[(1-acetylpiperidin-4-yl)methyl]-N-{[(2R)-1,4-dioxan-2-yl]methyl}-4-methyl-8-(trifluoromethyl)-4,5-dihydro-2H-furo[2,3-g]indazole-7-carboxamide], the IC50 was found to be 8 nM.

For the molecule `C[C@@H]1Cc2oc(C(=O)NC[C@@H]3COCCO3)c(C(F)(F)F)c2-c2nn(CC3CCN(C(=O)C4(O)CC4)CC3)cc21` (single isomer, unassigned) [Example 295, (4R or 4S)-N-{[(2R)-1,4-dioxan-2-yl]methyl}-2-{[1-(1-hydroxycyclopropane-1-carbonyl)piperidin-4-yl]methyl}-4-methyl-8-(trifluoromethyl)-4,5-dihydro-2H-furo[2,3-g]indazole-7-carboxamide], the IC50 is 8 nM.

For `CCC(=O)C(=O)N1CCC(Cn2cc3c(n2)-c2c(oc(C(=O)NC[C@@H]4COCCO4)c2C(F)(F)F)C[C@H]3C)CC1` (single isomer, unassigned) [Example 296, (4R or 4S)-N-{[(2R)-1,4-dioxan-2-yl]methyl}-4-methyl-2-{[1-(2-oxobutanoyl)piperidin-4-yl]methyl}-8-(trifluoromethyl)-4,5-dihydro-2H-furo[2,3-g]indazole-7-carboxamide], the IC50 was 9 nM.

Take `CCC(=O)C(=O)N1CCC(Cn2cc3c(n2)-c2c(oc(C(=O)NC[C@@H]4CCCO4)c2C(F)(F)F)C[C@H]3C)CC1` (single isomer, unassigned) [Example 297, (4R or 4S)-4-methyl-2-{[1-(2-oxobutanoyl)piperidin-4-yl]methyl}-N-{[(2S)-oxolan-2-yl]methyl}-8-(trifluoromethyl)-4,5-dihydro-2H-furo[2,3-g]indazole-7-carboxamide]: the IC50 was 13 nM.

On to `C[C@@H]1Cc2oc(C(=O)NC[C@@H]3CCCO3)c(C(F)(F)F)c2-c2nn(CC3CCN(C(=O)C4(C)CC4)CC3)cc21` (single isomer, unassigned) [Example 298, (4R or 4S)-4-methyl-2-{[1-(1-methylcyclopropane-1-carbonyl)piperidin-4-yl]methyl}-N-{[(2S)-oxolan-2-yl]methyl}-8-(trifluoromethyl)-4,5-dihydro-2H-furo[2,3-g]indazole-7-carboxamide], for which the IC50 was 9 nM.

For the molecule `C[C@@H]1Cc2oc(C(=O)NC[C@@H]3COCCO3)c(C(F)(F)F)c2-c2nn(CC3CCN(C(=O)C4(C)CC4)CC3)cc21` (single isomer, unassigned) [Example 299, (4R or 4S)-N-{[(2R)-1,4-dioxan-2-yl]methyl}-4-methyl-2-{[1-(1-methylcyclopropane-1-carbonyl)piperidin-4-yl]methyl}-8-(trifluoromethyl)-4,5-dihydro-2H-furo[2,3-g]indazole-7-carboxamide], the IC50 amounted to 24 nM.

As for `Cc1ncc(CNC(=O)c2oc3c(c2C(F)(F)F)-c2nn(C[C@H]4COCCO4)cc2[C@H](C)C3)cn1` (single isomer, unassigned) [Example 302, (4R or 4S)-2-{[(2S)-1,4-dioxan-2-yl]methyl}-4-methyl-N-[(2-methylpyrimidin-5-yl)methyl]-8-(trifluoromethyl)-4,5-dihydro-2H-furo[2,3-g]indazole-7-carboxamide], the concentration for half-maximal inhibition (IC50) amounted to 1510 nM.

`Cc1cnc(CNC(=O)c2oc3c(c2C(F)(F)F)-c2nn(C[C@H]4COCCO4)cc2[C@H](C)C3)nc1` (single isomer, unassigned) [Example 303, (4R or 4S)-2-{[(2S)-1,4-dioxan-2-yl]methyl}-4-methyl-N-[(5-methylpyrimidin-2-yl)methyl]-8-(trifluoromethyl)-4,5-dihydro-2H-furo[2,3-g]indazole-7-carboxamide]: the IC50 was found to be 6 nM.

In the case of `C[C@@H]1Cc2oc(C(=O)NCc3ncccn3)c(C(F)(F)F)c2-c2nn(C[C@H]3COCCO3)cc21` (single isomer, unassigned) [Example 304], the IC50 came to 13 nM.

For `CC1COC(CNC(=O)c2oc3c(c2C(F)(F)F)-c2nn(C[C@H]4COCCO4)cc2[C@H](C)C3)C1` (single isomer, unassigned) [Example 313, 2,5-anhydro-1,3,4-trideoxy-1-{[(4R or 4S)-2-{[(2S)-1,4-dioxan-2-yl]methyl}-4-methyl-8-(trifluoromethyl)-4,5-dihydro-2H-furo[2,3-g]indazole-7-carbonyl]amino}-4-methylpentitol], the IC50 amounted to 21 nM.

What is called IC50 is the concentration needed to halve the response being measured.
